Assay results taken from patent US10220029B2, “Pharmaceutical composition comprising glutarimide derivatives and use thereof in the treatment of eosinophilic diseases” (OBSCHESTVO S ORGANICHENNOI OTVETSTVENNOSTIYU …, priority 2013, dated 2019).

Experiments:
[1] = system: model of sephadex-induced eosinophilic lung inflammation in rats; assay: Content of cell elements in BAL in the model of sephadex-induced eosinophilic lung inflammation in rats; type: in vivo, male Wistar rats; details: Table 8, four times, BAL 48 hours after sephadex, n = 10
Experimental: The model of sephadex-induced eosinophilic lung inflammation in rats was realized by a standard method [Evaldsson C, Rydén I, Uppugunduri S. Isomaltitol exacerbates neutrophilia but reduces eosinophilia: new insights into the sephadex model of lung inflammation//Int Arch Allergy Immunol. 2011; 154(4):286-94]. Sephadex G-200 (Pharmacia, Sweden) was administered one time by inhalation to male Wistar rats at a dose of 5 mg/kg. The studied compounds were administered to the animals by the intragastric route four times: 24 hours and 1 hour before and 24 hours and 45 hours after administration of sephadex. The reference preparation, budesonide, was administered according to the same scheme, by inhalation at a dose of 0.5 mg/kg. Bronchoalveolar lavage was taken 48 hours after the inhalation of sephadex, and the total lymphocyte count and leukocyte formula in the lavage were determined. The number of rats in a group was 7 to 10.

[2] = system: model of bronchial asthma in guinea pigs; assay: Severity of bronchospasm in the model of bronchial asthma in guinea pigs; type: in vivo, guinea pig; details: Experiment No. 1, 10 times, n = 8
Experimental: Bronchial asthma in guinea pigs was induced by a standard method [Ricciardolo F L, Nijkamp F, De Rose V, Folkerts G. The guinea pig as an animal model for asthma// Current Drug Targets. 2008 June; 9(6):452-65]. The animals were immunized by one parenteral administration of 0.5 mL of a solution comprising 100 μg/mL ovalbumin (Sigma) and 100 mg/mL aluminium hydroxide. Intact animals received a physiological saline solution in an amount of 0.5 mL.
On days 29, 30 and 31, hyperactivity of the respiratory airways was provoked by inhalation administration of ovalbumin in ascending concentrations of 0.1, 0.3, and 0.5 mg/mL on days 1, 2, and 3 of the provocation, respectively. The inhalation lasted 5 minutes or until asphyxia symptoms became apparent (fall to one side). On day 32, the animals received a challenging dose of ovalbumin (1 mg/mL) for 5 minutes, while assessing a bronchospastic reaction.
The studied compounds were administered to the animals once daily every day for 6 or 10 days; the administration was terminated two days before the administration of the challenging dose of antigen.
The bronchospastic reaction was assessed by a change in the rate and depth of the respiratory movements and by the asphyxia symptom such as fall to one side. Spirogram was registered by laboratory experimental equipment (ADInstruments, Australia), using a base recording station (PowerLab 8sp.) and software LabCart. The registration was made using airflow sensors for laboratory animals and a spirograph with an integrated amplifier (ADInstruments).
The study comprised 3 experiments, wherein the first one was directed to the evaluation of the effect of claimed compounds 1-6 on the cell composition of the BAL, the second and the third experiments were aimed at evaluating the effect of compounds 1 and 2 on the cell composition of the BAL, the cell composition of the blood, and on the bronchospasm severity.

With `O=C1CCCC(=O)N1CCc1cnc[nH]1` [Compound 1, 1-(2-(1H-imidazol-4-yl)ethyl)piperidine-2,6-dione] the “Eosinophils, content of cell elements in 1 μL of BAL” value (“Eosinophils, content” below) ([1]; 0.06 mg/kg intragastric) was 118 ± 27*& in 1 μL of BAL, the “Leukocytes, content of cell elements in 1 μL of BAL” value (“Leukocytes, content” for short) ([1]; 0.06 mg/kg intragastric) was 2500 ± 307 in 1 μL of BAL and the “Lymphocytes, content of cell elements in 1 μL of BAL” value (“Lymphocytes, content” for short) ([1]; 0.06 mg/kg intragastric) was 128 ± 48 in 1 μL of BAL. For the same compound, the “Macrophages, content of cell elements in 1 μL of BAL” value (from here on “Macrophages, content”) ([1]; 0.06 mg/kg intragastric) was 1417 ± 131 in 1 μL of BAL, the “Neutrophils, content of cell elements in 1 μL of BAL” value (from here on “Neutrophils, content”) ([1]; 0.06 mg/kg intragastric) was 837 ± 231 in 1 μL of BAL and the “Eosinophils, content” value ([1]; 0.18 mg/kg intragastric) was 174 ± 64*& in 1 μL of BAL. For the same compound, the “Leukocytes, content” value ([1]; 0.18 mg/kg intragastric) was 2665 ± 455 in 1 μL of BAL, the “Lymphocytes, content” value ([1]; 0.18 mg/kg intragastric) was 143 ± 54 in 1 μL of BAL and the “Macrophages, content” value ([1]; 0.18 mg/kg intragastric) was 1661 ± 260 in 1 μL of BAL. The “Neutrophils, content” value ([1]; 0.18 mg/kg intragastric) was 597 ± 168 in 1 μL of BAL, the “Eosinophils, content” value ([1]; 0.54 mg/kg intragastric) was 126 ± 43*& in 1 μL of BAL and the “Leukocytes, content” value ([1]; 0.54 mg/kg intragastric) was 2120 ± 218*& in 1 μL of BAL. For the same compound, the “Lymphocytes, content” value ([1]; 0.54 mg/kg intragastric) was 196 ± 63 in 1 μL of BAL, the “Macrophages, content” value ([1]; 0.54 mg/kg intragastric) was 1446 ± 113 in 1 μL of BAL and the “Neutrophils, content” value ([1]; 0.54 mg/kg intragastric) was 352 ± 135 in 1 μL of BAL. The “Eosinophils, content” value ([1]; 1.8 mg/kg intragastric) was 129 ± 44*& in 1 μL of BAL, the “Leukocytes, content” value ([1]; 1.8 mg/kg intragastric) was 1915 ± 250*& in 1 μL of BAL and the “Lymphocytes, content” value ([1]; 1.8 mg/kg intragastric) was 122 ± 49 in 1 μL of BAL. The “Macrophages, content” value ([1]; 1.8 mg/kg intragastric) was 1214 ± 130 in 1 μL of BAL, the “Neutrophils, content” value ([1]; 1.8 mg/kg intragastric) was 451 ± 149 in 1 μL of BAL and the “Eosinophils, content” value ([1]; 5.4 mg/kg intragastric) was 152 ± 56*& in 1 μL of BAL. For the same compound, the “Leukocytes, content” value ([1]; 5.4 mg/kg intragastric) was 2340 ± 322 in 1 μL of BAL, the “Lymphocytes, content” value ([1]; 5.4 mg/kg intragastric) was 170 ± 45 in 1 μL of BAL and the “Macrophages, content” value ([1]; 5.4 mg/kg intragastric) was 1525 ± 199 in 1 μL of BAL. For the same compound, the “Neutrophils, content” value ([1]; 5.4 mg/kg intragastric) was 492 ± 129 in 1 μL of BAL, the “Eosinophils, content” value ([1]; 18 mg/kg intragastric) was 69 ± 22*& in 1 μL of BAL and the “Leukocytes, content” value ([1]; 18 mg/kg intragastric) was 2135 ± 205*& in 1 μL of BAL. For the same compound, the “Lymphocytes, content” value ([1]; 18 mg/kg intragastric) was 168 ± 44 in 1 μL of BAL, the “Macrophages, content” value ([1]; 18 mg/kg intragastric) was 1601 ± 134 in 1 μL of BAL and the “Neutrophils, content” value ([1]; 18 mg/kg intragastric) was 297 ± 89*& in 1 μL of BAL. The “The number of animals with moderate bronchospasm (without acute phase, with subacute phase, with breath management)” value ([2]; 0.045 mg/kg) was 1, the “The number of animals with moderate bronchospasm (without acute phase, with subacute phase, without breath management)” value ([2]; 0.045 mg/kg) was 2 and the “The number of animals with severe bronchospasm (in acute and subacute phase)” value (from here on “The number … (in acute and subacute phase)”) ([2]; 0.045 mg/kg) was 0. For the same compound, the “The number of animals without bronchospasm” value ([2]; 0.045 mg/kg) was 5, the “The number of animals with moderate bronchospasm (without acute phase, with subacute phase, with breath management)” value ([2]; 0.14 mg/kg) was 1 and the “The number of animals with moderate bronchospasm (without acute phase, with subacute phase, without breath management)” value ([2]; 0.14 mg/kg) was 0. The “The number … (in acute and subacute phase)” value ([2]; 0.14 mg/kg) was 0, the “The number of animals without bronchospasm” value ([2]; 0.14 mg/kg) was 7 and the “The number of animals with moderate bronchospasm (without acute phase, with subacute phase, with breath management)” value ([2]; 14 mg/kg) was 0. The “The number of animals with moderate bronchospasm (without acute phase, with subacute phase, without breath management)” value ([2]; 14 mg/kg) was 2, the “The number … (in acute and subacute phase)” value ([2]; 14 mg/kg) was 1 and the “The number of animals without bronchospasm” value ([2]; 14 mg/kg) was 5.
